From PMC5793121 (Toxins, 2018)
Where two headings read alike, the source gives them in different places. No end group written: not given here.

Experiments:
[1] = tested on: peritoneal macrophages of male ICR mice; assay type: in vivo, mouse; settings: 7-day im 0.15 and 0.5 mg/kg
Procedure: (§1) For carrying out these experiments 90 male ICR mice were used, they were divided equally into three groups (30 animals per group) for each study and in these groups they were subdivided into subgroups of 10 mice each and treated as follows: mice of the first subgroup were injected with normal saline im, the second subgroup animals were treated with Az (0.15 mg/kg im) and the animals of the third subgroup were treated with Az (0.50 mg/kg im). The drugs were injected into the quadriceps muscle of the thigh (musculus quadriceps femoris) daily for seven days (1 mL/kg).
On the next day after the seven-day course of the Az administration, the mice of the third group (30 animals) were injected intraperitoneally with 2 mL of ink particles suspension. After 10 min the mice were euthanized (CO2 inhalation) with a subsequent isolation of the peritoneal exudate from their abdominal cavity. In the exudate (1 μL) the total number of peritoneal macrophages and the number of the ink particle-containing (phagocytic) cells among them were counted using a Gorjaev’s chamber.

[2] = target: T1, mouse muscle type α1β1εδ nAChR (Mus musculus, UniProt P02716+P04756+P20782); assay: Calcium imaging of ACh-evoked [Ca2+]i rise in Neuro2a cells expressing muscle nAChR (Case12 sensor); assay type: cell-based
T1 construct: expressed in transfected cells; host or cells: mouse neuroblastoma Neuro2a, transient transfection (pRBG4 plasmids), co-expressed with Case12 calcium sensor
Procedure: Mouse neuroblastoma Neuro2a cells were purchased from the Russian collection of cell cultures (Institute of Cytology, Russian Academy of Sciences, Saint Petersburg, Russia). Cells were cultured in DMEM (Paneco, Moscow, Russia) supplemented with 10% FBS. They were sub-cultured the day before transfection and were plated at a density of 10,000 cells per well in a 96-well black plate. On the next day Neuro2a cells were transiently transfected with plasmids coding mouse muscle α1β1δε nAChR (pRBG4-vector) and a fluorescent calcium sensor Case12 (pCase12-cyto vector, Evrogen, Moscow, Russia) in a molar ratio of 2:1 following a lipofectamine transfection protocol (ThermoFisher Scientific, Waltham, MA, USA). Human α7 nAChR (α7 nAChR-pCEP4) was expressed accordingly with a co-expression of the human chaperone Ric-3 (Ric3-pCMV6-XL5, OriGene, Rockville, MD, USA) in a molar ratio 4:1. The transfected cells were grown at 37 °C in a CO2 incubator for 48–72 h, before performing the calcium imaging assay.
Calcium imaging procedure was performed as published earlier. Briefly, after removing the growth medium, the transfected Neuro2a cells and cultivated SH-SY5Y cells were washed with a buffer containing 140 mM NaCl, 2 mM CaCl2, 2.8 mM KCl, 4 mM MgCl2, 20 mM HEPES, 10 mM glucose; pH 7.4. Neuro2a cells expressing muscle nAChR and the protein calcium sensor Case12 were proceeded directly, while SH-SY5Y cells expressing human α3-containing nAChRs natively were loaded with a fluorescent dye Fluo-4, AM (1.824 μM, ThermoFisher Scientific, Waltham, MA, USA) and a water-soluble probenecid (1.25 mM, ThermoFisher Scientific, Waltham, MA, USA) for 30 min at 37 °C and then were kept for 30 min at room temperature according to the manufacturer’s protocol.
To detect the human α7 nAChR-mediated calcium response, transfected Neuro2a cells were incubated with its positive allosteric modulator PNU120596 (10 μM, Tocris Bioscience, Bristol, UK) for 20 min at room temperature before acetylcholine (Sigma-Aldrich Chemie Gmbh, Munich, Germany) addition. To assess mouse muscle or human α3-containing nAChRs this step was skipped. […]
The plates were transferred to the multimodal microplate reader Hidex Sence (Hidex, Turku, Finland) where the cells were excited by light of 485 nm wavelength and emitted fluorescence was detected at 535 ± 10 nm. Fluorescence was recorded every 2 s for three minutes following agonist addition. Responses were measured as peak intensity minus basal fluorescence level and were expressed as a percentage of the maximal response obtained to agonist. Data files were analyzed using Hidex Sence software (Hidex, Turku, Finland) and OriginPro 7.5 software (OriginLab, Northampton, MA, USA, for statistical analysis).

[3] = for AUC(0 → t) / Cmax / T1/2: single, [125I]-Az, blood radioactivity, 5 animals per time point
Procedure: The pharmacokinetic study was performed using 163 male ICR mice. Four experimental groups with 40 animals in each were formed. Three intact mice were used as control animals. The animals of the first two experimental groups were intravenously injected with 0.25 and 0.50 mg/kg [^125I]-Az, respectively. The animals of the other two experimental groups were intramuscularly injected with 0.25 and 0.50 mg/kg [^125I]-Az, respectively. To estimate Az elimination rate, animal blood samples were taken from the orbital sinus 5, 15, 30, 60 min and 1, 2, 4 and 24 h after [^125I]-Az administration. The obtained blood samples were weighed. For each indicated time point, [^125I]-Az concentration was calculated as a mean value in blood samples of five animals. The radioactivity (cpm) in the blood samples was counted using a Wallac 1470 WIZARD® Gamma Counter (Perkin Elmer, Waltham, MA, USA). […] Radioactivity data (cpm) were re-calculated to the concentration of [^125I]-Az in the obtained blood samples. The specific pharmacokinetic parameters (AUC (0 → t), Cmax, T1/2) of [^125I]-Az were estimated.

male ICR mice = assay type: in vivo, mouse; settings: 7-day im 0.15 and 0.5 mg/kg
Procedure: as §1
On the last 7th day of the Az administration, the mice of the first group (30 animals) were immunized with a solution of trinitrobenzenesulfonic acid (TNBS) (200 μL, 10 mM) subcutaneously at the base of a tail. After 6 days the animals were secondarily immunized with TNBS (50 μL, 10 mM) injected in the pad of the left hind paw, the same volume of normal saline was injected into the right hind paw. 24 h after the second immunization, the animals were euthanized (CO2 inhalation) and the weights of their experimental and control paws were determined. The reaction index was calculated using the indicated formula: Ri=Wexp−Wcont/Wexp×100% Ri—reaction index, Wexp—weight of the experimental paw, Wcont—weight of the control paw.

[4] = tested on: human muscle-type nAChR adult form α1β1εδ; settings: Xenopus oocytes; cited from earlier work

T1 sequence (P09690 24-501): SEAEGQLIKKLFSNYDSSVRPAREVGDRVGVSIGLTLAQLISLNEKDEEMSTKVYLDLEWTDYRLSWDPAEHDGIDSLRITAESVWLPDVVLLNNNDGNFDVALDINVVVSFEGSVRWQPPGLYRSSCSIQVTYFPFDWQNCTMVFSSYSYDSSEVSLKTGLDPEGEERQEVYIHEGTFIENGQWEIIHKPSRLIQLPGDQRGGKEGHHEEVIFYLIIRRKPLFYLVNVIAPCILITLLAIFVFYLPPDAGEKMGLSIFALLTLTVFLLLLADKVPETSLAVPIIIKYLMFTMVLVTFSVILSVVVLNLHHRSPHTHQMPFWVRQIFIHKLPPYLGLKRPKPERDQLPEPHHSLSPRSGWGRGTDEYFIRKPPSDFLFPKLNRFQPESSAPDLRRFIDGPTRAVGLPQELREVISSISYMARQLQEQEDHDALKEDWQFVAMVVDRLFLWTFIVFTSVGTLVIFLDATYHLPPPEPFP
T1 sequence (P04756 21-457): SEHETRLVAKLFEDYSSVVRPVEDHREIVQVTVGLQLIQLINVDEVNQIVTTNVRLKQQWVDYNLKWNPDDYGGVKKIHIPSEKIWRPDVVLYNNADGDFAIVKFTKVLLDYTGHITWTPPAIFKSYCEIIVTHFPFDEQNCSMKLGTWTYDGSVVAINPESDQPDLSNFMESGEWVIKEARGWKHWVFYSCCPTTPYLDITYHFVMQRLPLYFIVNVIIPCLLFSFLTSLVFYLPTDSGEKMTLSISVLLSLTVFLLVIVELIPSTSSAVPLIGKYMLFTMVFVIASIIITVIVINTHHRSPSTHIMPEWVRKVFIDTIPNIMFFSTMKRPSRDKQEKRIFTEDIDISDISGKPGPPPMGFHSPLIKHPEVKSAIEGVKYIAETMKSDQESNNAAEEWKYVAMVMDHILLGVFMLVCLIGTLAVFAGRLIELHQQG
T1 sequence (P02716 25-520): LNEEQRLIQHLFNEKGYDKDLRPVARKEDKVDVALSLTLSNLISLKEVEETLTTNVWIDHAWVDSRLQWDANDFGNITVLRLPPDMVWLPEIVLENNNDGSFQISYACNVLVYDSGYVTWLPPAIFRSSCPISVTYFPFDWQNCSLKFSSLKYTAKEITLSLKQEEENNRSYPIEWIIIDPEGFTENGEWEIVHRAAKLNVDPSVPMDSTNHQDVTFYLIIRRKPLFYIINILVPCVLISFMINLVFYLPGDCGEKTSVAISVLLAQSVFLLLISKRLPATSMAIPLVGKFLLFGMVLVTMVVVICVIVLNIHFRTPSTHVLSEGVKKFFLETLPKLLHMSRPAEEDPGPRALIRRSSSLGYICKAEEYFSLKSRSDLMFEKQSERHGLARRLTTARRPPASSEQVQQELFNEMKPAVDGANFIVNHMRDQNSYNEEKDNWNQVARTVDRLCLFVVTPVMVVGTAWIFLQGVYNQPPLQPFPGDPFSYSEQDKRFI
T1 sequence (P20782 21-493): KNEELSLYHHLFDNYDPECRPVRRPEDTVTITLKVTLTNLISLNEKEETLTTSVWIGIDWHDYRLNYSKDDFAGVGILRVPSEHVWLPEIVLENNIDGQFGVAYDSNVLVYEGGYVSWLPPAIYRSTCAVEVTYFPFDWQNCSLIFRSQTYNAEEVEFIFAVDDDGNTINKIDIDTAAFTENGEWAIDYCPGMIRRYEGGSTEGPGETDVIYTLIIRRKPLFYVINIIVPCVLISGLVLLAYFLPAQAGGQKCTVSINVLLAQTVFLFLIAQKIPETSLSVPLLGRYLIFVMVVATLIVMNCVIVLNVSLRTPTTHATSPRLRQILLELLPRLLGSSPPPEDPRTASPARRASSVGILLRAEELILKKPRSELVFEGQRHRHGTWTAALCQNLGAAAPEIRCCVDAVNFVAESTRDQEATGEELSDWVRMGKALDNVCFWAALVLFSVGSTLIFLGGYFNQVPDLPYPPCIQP

**Q.** What does the source list for “DNWWPKPPHQGPRPPRPRPKP-NH2 [Az, azemiopsin]”?
**A.** phagocytic activity (engulfing ink particles) of peritoneal macrophages [1]: did not significantly change; IC50 ([2]; 30 μM ACh (EC100), transfected Neuro2a cells, Case12 sensor, 15 min preincubation, mean ± SEM, 4 independent experiments, read-out: IC50, inhibition of ACh-evoked calcium response of muscle nAChR): 19 ± 8 nM; selectivity to muscle receptor versus α7 nAChR ([2]; ratio of calcium imaging IC50 values α7 / muscle): about 140 times; excretion half-life ([3]; depending on administration way (iv or im), mice): 15 to 40 min; AUC(0 → t) ([3]; im 0.25 mg/kg, male ICR mice): 328 ng·h/mL; Cmax ([3]; im 0.25 mg/kg, male ICR mice): 278 ng/mL; T1/2 ([3]; im 0.25 mg/kg, male ICR mice): 18 min; AUC(0 → t) ([3]; im 0.50 mg/kg, male ICR mice): 622 ng·h/mL; Cmax ([3]; im 0.50 mg/kg, male ICR mice): 257 ng/mL; T1/2 ([3]; im 0.50 mg/kg, male ICR mice): 40.8 min; half-life T1/2 ([3]; intramuscular administration, 0.25 and 0.5 mg/kg, male ICR mice): 20 to 40 min; AUC(0 → t) ([3]; iv 0.25 mg/kg, male ICR mice): 214 ng·h/mL; Cmax ([3]; iv 0.25 mg/kg, male ICR mice): 517 ng/mL; T1/2 ([3]; iv 0.25 mg/kg, male ICR mice): 15.6 min; AUC(0 → t) ([3]; iv 0.50 mg/kg, male ICR mice): 542 ng·h/mL; Cmax ([3]; iv 0.50 mg/kg, male ICR mice): 745 ng/mL; T1/2 ([3]; iv 0.50 mg/kg, male ICR mice): 17.4 min; degree of paw edema in delayed-type hypersensitivity to TNBS (cellular immunity) (male ICR mice): did not cause any significant changes; IC50 [4]: 440 ± 100 nM
